The test system of this test is BDF1 mice, Adenocarcinoma 755 s.c., tumor weight T/C. Briefly: NCI In Vivo Anticancer Drug Screen. Data for tumor model Adenocarcinoma 755 (subcutaneous) in B6D2F1 (BDF1) mice. Conditions: endpoint: mean tumor weight, higher = larger tumour. An outline of the steps: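 Values express treated (T) relative to vehicle-dosed control (C) animals, based on survival or tumour size measured after compound treatment of mice bearing a transplanted tumour.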

Experimental findings from PubChem BioAssay AID180 (DTP/NCI, 2004) are described below.

“And” between values parts separate entries of the source, which are not always exact repeats. Identical values can stand only once.

In the case of `CSc1ncnc2nc[nH]c12`, the T/C (dose: 0.5 mg/kg/injection, schedule: Q#A X022 (ip), vehicle: carboxymethylcellulose (CMC)) was 64 % of control; the T/C (dose: 1.0 mg/kg/injection, schedule: Q01DX011 (im), vehicle: carboxymethylcellulose (CMC)) was 99 % of control; the T/C (dose: 1.0 mg/kg/injection, schedule: Q01DX011 (oral), vehicle: carboxymethylcellulose (CMC)) is 58 % of control; the T/C (dose: 1.0 mg/kg/injection, schedule: Q01DX011 (sc), vehicle: carboxymethylcellulose (CMC)) was 58 % of control; the T/C (dose: 1.5 mg/kg/injection, schedule: Q01DX011 (ip), vehicle: carboxymethylcellulose (CMC)) was 50 % of control; the T/C (dose: 2.5 mg/kg/injection, schedule: Q#A X022 (ip), vehicle: carboxymethylcellulose (CMC)) was 46 % of control. Also, the T/C was 82 % of control (dose: 3.0 mg/kg/injection, schedule: Q01DX011 (ip), vehicle: carboxymethylcellulose (CMC)); 89 % of control (dose: 5.0 mg/kg/injection, schedule: Q01DX011 (im), vehicle: carboxymethylcellulose (CMC)); 5 % of control and 26 % of control (dose: 5.0 mg/kg/injection, schedule: Q01DX011 (oral), vehicle: carboxymethylcellulose (CMC)); 60 % of control (dose: 5.0 mg/kg/injection, schedule: Q01DX011 (sc), vehicle: carboxymethylcellulose (CMC)); 70 % of control (dose: 5.0 mg/kg/injection, schedule: Q03DX004 (ip), vehicle: carboxymethylcellulose (CMC)); 40 % of control (dose: 5.0 mg/kg/injection, schedule: Q#A X022 (ip), vehicle: carboxymethylcellulose (CMC)). The T/C (dose: 6.0 mg/kg/injection, schedule: Q01DX011 (ip), vehicle: carboxymethylcellulose (CMC)) was 28 % of control; the T/C (dose: 7.5 mg/kg/injection, schedule: Q#A X022 (ip), vehicle: carboxymethylcellulose (CMC)) is 40 % of control; the T/C (dose: 10.0 mg/kg/injection, schedule: Q01DX001 (ip), vehicle: carboxymethylcellulose (CMC)) is 94 % of control; the T/C (dose: 10.0 mg/kg/injection, schedule: Q01DX011 (sc), vehicle: carboxymethylcellulose (CMC)) was 30 % of control; the T/C (dose: 10.0 mg/kg/injection, schedule: Q03DX004 (ip), vehicle: carboxymethylcellulose (CMC)) is 86 % of control; the T/C (dose: 12.0 mg/kg/injection, schedule: Q01DX011 (ip), vehicle: carboxymethylcellulose (CMC)) is 13 % of control. The T/C by setting is: (dose: 12.5 mg/kg/injection, schedule: Q#A X022 (ip), vehicle: carboxymethylcellulose (CMC)) 4 % of control; (dose: 15.0 mg/kg/injection, schedule: Q01DX011 (im), vehicle: carboxymethylcellulose (CMC)) 8 % of control; (dose: 15.0 mg/kg/injection, schedule: Q01DX011 (oral), vehicle: carboxymethylcellulose (CMC)) 5 % of control; (dose: 15.0 mg/kg/injection, schedule: Q01DX011 (sc), vehicle: carboxymethylcellulose (CMC)) 4 % of control; (dose: 25.0 mg/kg/injection, schedule: Q01DX001 (ip), vehicle: carboxymethylcellulose (CMC)) 53 % of control; (dose: 25.0 mg/kg/injection, schedule: Q01DX006 (iv), vehicle: carboxymethylcellulose (CMC)) 36 % of control. In addition, the T/C by setting is: (dose: 25.0 mg/kg/injection, schedule: Q01DX011 (im), vehicle: carboxymethylcellulose (CMC)) 6 % of control; (dose: 25.0 mg/kg/injection, schedule: Q01DX011 (ip), vehicle: carboxymethylcellulose (CMC)) 1 % of control; (dose: 25.0 mg/kg/injection, schedule: Q01DX011 (oral), vehicle: carboxymethylcellulose (CMC)) 11 % of control; (dose: 25.0 mg/kg/injection, schedule: Q03DX004 (ip), vehicle: carboxymethylcellulose (CMC)) 82 % of control; (dose: 25.0 mg/kg/injection, schedule: Q#A X022 (ip), vehicle: carboxymethylcellulose (CMC)) 2 % of control; (dose: 50.0 mg/kg/injection, schedule: Q01DX001 (ip), vehicle: carboxymethylcellulose (CMC)) 41 % of control. The T/C is, setting by setting: (dose: 50.0 mg/kg/injection, schedule: Q01DX006 (iv), vehicle: carboxymethylcellulose (CMC)) 37 % of control; (dose: 50.0 mg/kg/injection, schedule: Q01DX011 (ip), vehicle: carboxymethylcellulose (CMC)) 1 % of control; (dose: 50.0 mg/kg/injection, schedule: Q01DX011 (oral), vehicle: carboxymethylcellulose (CMC)) 1 % of control and 3 % of control; (dose: 50.0 mg/kg/injection, schedule: Q03DX004 (ip), vehicle: carboxymethylcellulose (CMC)) 80 % of control; (dose: 50.0 mg/kg/injection, schedule: Q#A X022 (ip), vehicle: carboxymethylcellulose (CMC)) 2 % of control; (dose: 75.0 mg/kg/injection, schedule: Q01DX001 (ip), vehicle: carboxymethylcellulose (CMC)) 80 % of control. Moreover, the T/C is, setting by setting: (dose: 75.0 mg/kg/injection, schedule: Q03DX004 (ip), vehicle: carboxymethylcellulose (CMC)) 14 % of control; (dose: 100.0 mg/kg/injection, schedule: Q01DX001 (ip), vehicle: carboxymethylcellulose (CMC)) 46 % of control; (dose: 100.0 mg/kg/injection, schedule: Q01DX006 (iv), vehicle: carboxymethylcellulose (CMC)) 21 % of control; (dose: 100.0 mg/kg/injection, schedule: Q01DX011 (ip), vehicle: carboxymethylcellulose (CMC)) 1 % of control; (dose: 100.0 mg/kg/injection, schedule: Q01DX011 (oral), vehicle: carboxymethylcellulose (CMC)) 5 % of control; (dose: 125.0 mg/kg/injection, schedule: Q01DX001 (ip), vehicle: carboxymethylcellulose (CMC)) 37 % of control. Also, the T/C is, setting by setting: (dose: 150.0 mg/kg/injection, schedule: Q03DX004 (ip), vehicle: carboxymethylcellulose (CMC)) 2 % of control; (dose: 200.0 mg/kg/injection, schedule: Q01DX006 (iv), vehicle: carboxymethylcellulose (CMC)) 4 % of control; (dose: 375.0 mg/kg/injection, schedule: Q01DX001 (ip), vehicle: carboxymethylcellulose (CMC)) 53 % of control.
As for `CC(=O)OCC1OC(n2cnc3c(N)ncnc32)C(OC(C)=O)C1OC(C)=O` (configuration not stated), the T/C is, setting by setting: (dose: 30.0 mg/kg/injection, schedule: Q01DX011 (ip), vehicle: carboxymethylcellulose (CMC)) 150 % of control; (dose: 120.0 mg/kg/injection, schedule: Q01DX011 (ip), vehicle: carboxymethylcellulose (CMC)) 113 % of control; (dose: 240.0 mg/kg/injection, schedule: Q01DX011 (ip), vehicle: carboxymethylcellulose (CMC)) 103 % of control.
Turning to `O=C(CCBr)NCCCCCNC(=O)CCBr`, the T/C reads like this: (dose: 56.0 mg/kg/injection, schedule: Q01DX011 (ip), vehicle: methylcellulose (MC)) 86 % of control; (dose: 113.0 mg/kg/injection, schedule: Q01DX011 (ip), vehicle: methylcellulose (MC)) 71 % of control; (dose: 225.0 mg/kg/injection, schedule: Q01DX011 (ip), vehicle: methylcellulose (MC)) 78 % of control; (dose: 450.0 mg/kg/injection, schedule: Q01DX011 (ip), vehicle: methylcellulose (MC)) 47 % of control.
Turning to `Nc1nc(SCC(=O)c2ccccc2)c2[nH]cnc2n1`, the T/C reads like this: (dose: 0.46 mg/kg/injection, schedule: Q01DX011 (ip), vehicle: saline) 95 % of control; (dose: 0.93 mg/kg/injection, schedule: Q01DX011 (ip), vehicle: saline) 91 % of control; (dose: 1.87 mg/kg/injection, schedule: Q01DX011 (ip), vehicle: saline) 75 % of control; (dose: 15.0 mg/kg/injection, schedule: Q01DX011 (ip), vehicle: saline) 6 % of control; (dose: 30.0 mg/kg/injection, schedule: Q01DX011 (ip), vehicle: saline) 4 % of control and 6 % of control; (dose: 60.0 mg/kg/injection, schedule: Q01DX011 (ip), vehicle: saline) 4 % of control and 12 % of control. For the same compound, the T/C was 2 % of control (dose: 120.0 mg/kg/injection, schedule: Q01DX011 (ip), vehicle: saline) and 2 % of control (dose: 240.0 mg/kg/injection, schedule: Q01DX011 (ip), vehicle: saline).
Regarding `COc1cc2c3c(c4ccc(OC)c(OC)c4c2cc1OC)CN1CCC[C@@H]1C3`, the T/C was 65 % of control (dose: 5.0 mg/kg/injection, schedule: Q02DX006 (ip), vehicle: water); 52 % of control (dose: 10.0 mg/kg/injection, schedule: Q02DX006 (ip), vehicle: water); 33 % of control (dose: 15.0 mg/kg/injection, schedule: Q02DX006 (ip), vehicle: water); 21 % of control (dose: 20.0 mg/kg/injection, schedule: Q02DX006 (ip), vehicle: water).
Consider `O=c1[nH]cnc2n[nH]nc12`, for which the T/C is 55 % of control (dose: 125.0 mg/kg/injection, schedule: Q01DX011 (oral), vehicle: methylcellulose (MC)); 5 % of control (dose: 250.0 mg/kg/injection, schedule: Q02DX006 (ip), vehicle: methylcellulose (MC)); 21 % of control (dose: 250.0 mg/kg/injection, schedule: Q03DX004 (ip), vehicle: methylcellulose (MC)).
